Laboratory results taken from patent publication US4606911A, “Pharmaceutical composition for the prevention of dental caries” (Rohto Pharmaceutical Co. Ltd., priority 1984, dated 1986).
Converted amounts (≈) assume the structure as drawn. “Also recorded” adds a separate entry of the source.

How the values were obtained:
Format in all cases: cell-based
[1] = system: Streptococcus salivarius ATCC 9222; experiment: Antibacterial activity (MIC, growth in BHI medium); design: key to Antibacterial activity (growth): -: grow; ±: slightly grow; +: not grow
Description: To a test tube was charged 3.8 ml of Brain Heart Infusion (BHI) medium, and 100 μl of a sample solution containing oleanolic, ursolic or glycyrrhetic acid and 100 μl of pre-incubated culture of bacterium selected from those listed below were added thereto. The mixture was incubated at 37° C. and then allowed to stand over night. The extent of the growth of bacterium was observed after two or five days. The MIC value was determined for each sample and summarized in Table 2. |Streptococcus salivarius ATCC 9222

bacterial cells = experiment: Adherence of bacterial cells to the surface of an extracted tooth; conditions: extracted tooth suspended in a culture medium containing sucrose
[2] = system: Bacillus megaterium QM B1551; experiment: Antibacterial activity (MIC, growth in BHI medium); design: key to Antibacterial activity (growth): -: grow; ±: slightly grow; +: not grow
Description: To a test tube was charged 3.8 ml of Brain Heart Infusion (BHI) medium, and 100 μl of a sample solution containing oleanolic, ursolic or glycyrrhetic acid and 100 μl of pre-incubated culture of bacterium selected from those listed below were added thereto. The mixture was incubated at 37° C. and then allowed to stand over night. The extent of the growth of bacterium was observed after two or five days. The MIC value was determined for each sample and summarized in Table 2. |Bacillus megaterium QM B1551

[3] = system: S. mutans OMZ 176 (serotype d); experiment: microbe, parasite or virus in culture
Description: The adherence-inhibiting activity of the triterpenes of the formula (I) was measured using an inner wall of a test tube in place of the surface of a tooth.
To 2.9 ml of BHI medium containing 5% sucrose in a test tube (i) are added 30 μl of a sample solution prepared by dissolving a compound of: the formula (I) in H2 O or dimethylsulfoxide (DMSO) and 100 μl of culture medium containing S. mutans OMZ 176 (serotype d) which was preincuvated at 37° C. for 24 hours in BHI medium, and the mixture is incubated at 37° C. for 20 hours, with the test tube being maintained at a slant of 30°. The test tube is revolved gently two or three times and the supernatant is transferred to another test tube (ii). To the first test tube (i) is added 3 ml of 50 mM phosphate buffer (pH 7.5), and the test tube is gently revolved two or three times. The resultant supernatant is transferred to the third test tube (iii). The test tubes (ii) and (iii) are each centrifuged and respective supernatants are discarded. To each of the test tubes (i), (ii) and (iii) is added 3 ml of 0.5M NaOH, and the test tubes are shaken to suspend bacterial cells. Absorbance of the resulting suspension is measured at 660 nm. The absorbances obtained with respect to the test tube (i), (ii) and (iii) are represented by Ab(i), Ab(ii) and Ab(iii), respectively. Ab(i) reflects the amount of the bacterial cells adhered to the wall of the test tube and Ab(ii) and Ab(iii) correspond to the amount of the bacterial cells not adhered to the wall.
The same procedure is repeated using 30 μl of distilled water or DMSO in place of the sample solution to obtain a control. The absorbance of the control is represented by Ab(Cont.).
Adherence percentage of bacteria is calculated from the following equation. [formula]
Adherence inhibitory percentage (AIP) is calculated using the adherence percentage according to the following equation. [formula]
The magnitude of adherence-inhibiting activity of each of the samples is shown, in Table 3, by the use of the following symbols: […]

[4] = system: Streptococcus mutans OMZ 176; experiment: Antibacterial activity (MIC, growth in BHI medium); design: key to Antibacterial activity (growth): -: grow; ±: slightly grow; +: not grow
Description: To a test tube was charged 3.8 ml of Brain Heart Infusion (BHI) medium, and 100 μl of a sample solution containing oleanolic, ursolic or glycyrrhetic acid and 100 μl of pre-incubated culture of bacterium selected from those listed below were added thereto. The mixture was incubated at 37° C. and then allowed to stand over night. The extent of the growth of bacterium was observed after two or five days.
Streptococcus mutans OMZ 176

[5] = Streptococcus mutans, read-out: Adherence-inhibiting activity (AIP)

SMILES: C[C@H]1[C@H](C)CC[C@]2(C(=O)O)CC[C@]3(C)C(=CC[C@@H]4[C@@]5(C)CC[C@H](O)C(C)(C)[C@@H]5CC[C@]43C)[C@H]12 [Ursolic acid]
- Antibacterial activity (growth) ([1]; 10 μg/ml): -
- Antibacterial activity (growth) ([1]; 25 μg/ml): -
- Antibacterial activity (growth) ([1]; 50 μg/ml): +
- Antibacterial activity (growth) ([1]; 100 μg/ml): +
- Antibacterial activity (growth) ([1]; 200 μg/ml): +
- Antibacterial activity (growth) ([1]; 400 μg/ml): +
- MIC ([1]; ATCC9222, Streptococcus salivarius, BHI, 37° C., read-out: MIC (minimum inhibitory concentration)): 25 µg/mL (≈ 54.7 µM)
- adherence of bacterial cells to the surface of an extracted tooth (bacterial cells): completely inhibited
- Antibacterial activity (growth) ([2]; 10 μg/ml): -
- Antibacterial activity (growth) ([2]; 25 μg/ml): -
- Antibacterial activity (growth) ([2]; 50 μg/ml): -
- Antibacterial activity (growth) ([2]; 100 μg/ml): -
- Antibacterial activity (growth) ([2]; 200 μg/ml): -
- Antibacterial activity (growth) ([2]; 400 μg/ml): -
- MIC ([2]; Priestia megaterium, QMB1551, Bacillus megaterium, BHI, 37° C., read-out: MIC (minimum inhibitory concentration)): > 200 µg/mL
- adherence-inhibiting activity (in words) [3]: have both of the adherence-inhibiting activity and the selective antibacterial activity to S. mutans; also recorded: have both activities
- minimal effective concentration ([3]; Streptococcus mutans, 20 h, read-out: concentration at which adherence of the bacterial cells is inhibited): 10 µg/mL
- inhibition at 10 µg/mL [3, 5]: > 50%
- inhibition at 20 µg/mL [3, 5]: > 50%
- inhibition at 30 µg/mL [3, 5]: > 50%
- inhibition at 50 µg/mL [3, 5]: > 50%
- inhibition at 100 µg/mL [3, 5]: > 50%
- antibacterial activity to S. mutans (in words) [4]: also exhibit the selective activity on S. mutans, although the magnitude of the activity is each less than that of glycyrrthetic acid; also recorded: have both of the adherence-inhibiting activity and the selective antibacterial activity to S. mutans; also recorded: have both activities
- Antibacterial activity (growth) ([4]; 10 μg/ml): -
- antibacterial activity at 10 μg/ml (in words) ([4]; 10 μg/ml): ineffective for exhibiting antibacterial activity
- Antibacterial activity (growth) ([4]; 25 μg/ml): -
- Antibacterial activity (growth) ([4]; 50 μg/ml): +
- Antibacterial activity (growth) ([4]; 100 μg/ml): +
- Antibacterial activity (growth) ([4]; 200 μg/ml): +
- Antibacterial activity (growth) ([4]; 400 μg/ml): +
- MIC ([4]; Streptococcus mutans, OMZ176, Streptococcus mutans OMZ 176, BHI, 37° C., read-out: MIC (minimum inhibitory concentration)): 25 µg/mL (≈ 54.7 µM)
